The subject of this assay is Rats with Septic Shock. As to the kind of experiment: Survival of Sprague-Dawley rats in septic shock model (peritonitis). The class given is in vivo. The settings on record: for Survival of rats (number alive): Table XIV, septic shock + antibiotic (gentamicin sulfate, 1 mg/rat) + thymosin β4 1 mg/rat × 3 (0, 2, 4 hr post induction of peritonitis), 10 rats at 0 hr; for Number of Rats Alive: septic shock + Tβ4 1 mg/rat × 3, 10 rats at 0 h. The source says: Using a septic shock model in rats (Sprague-Dawley, male, 200-225 g each), the effect of thymosin β4 alone and together with antibiotics was studied. Peritonitis was induced in rats in the following way. A 1-cm incision was made into the peritoneal which exposed the cecum. A tight ligature was placed around the cecum with 4-0 suture distal to the insertion of the small bowel, forming an area of devitalized tissue while maintaining bowel continuity. A puncture wound was made with 16-gauge needle into the anti-mesenteric surface of the cecum and a small amount of fecal contents was expressed through the wound. The cecum was replaced into the peritoneal cavity, and the anterior peritoneal wall and skin were closed with surgical staples. Each animal was given a bolus of normal saline (15 ml/kg) for hydration and allowed to recover overnight.

Turning to Thymosin β4 [Tβ4], the “Survival of rats (number alive)” value is 4 (24 hr), 3 (48 hr) and 3 (72 hr). Besides, the “Number of Rats Alive” value was found to be 3 (Table XIX, 24 h); 3 (Table XIX, 48 h); 3 (Table XIX, 72 h); 4 (Table XX, 24 h); 3 (Table XX, 48 h); 3 (Table XX, 72 h).
